{
  "source": "patent US10668127B2",
  "about": "“Method and composition for synchronizing time of insemination” (UNITED-AH II, LLC, priority 2009, dated 2020)",
  "key": {"sows [1]": {"test_system": "sows", "assay": "Pregnancy rate and litter size at slaughter 30 days after insemination (Examples 1-7)", "format": "in vivo, swine", "conditions": "OG, LS means; for Pregnant (%): pregnant at slaughter of all sows allotted", "method": "Approximately 120 parity one to seven sows (30 sows within each treatment group) were used to obtain ovulation and reproductive tract data. All sows were of the same genotype (PIC C22). Following 16 to 24 days of lactation, sows were blocked by length of lactation and parity and randomly assigned to one of four treatments: 1) a placebo group, receiving a placebo gel at 96±2 hours post-weaning and a single AI 24 hours later, 2) triptorelin gel at 96±2 hours post-weaning and AI 18 to 20 hours later. 3) triptorelin gel at 96±2 hours post-weaning and AI 24 to 26 hours later, and 4) triptorelin gel at 96±2 hours post-weaning and AI 30 to 32 hours later. The placebo formulation was identical to the active formulation but without the hormone being present. All treatments were deposited into the anterior vagina within 2 cm of the cervix. Follicular development and ovulation was monitored via real time ultrasound at 24, 32, 40, 48, and 56 hours after treatment. Thirty (30) days after insemination, all sows were slaughtered and reproductive tracts obtained. Pregnancy rates and embryo survival were determined. Triptorelin was administered at 96 hours (±2 hr) post-weaning as a single 2 mL dose deposited approximately 1-2 cm posterior to the cervix with a modified artificial insemination catheter. Weaning of sows occurred between 10 a.m. and noon on Day (O). The timing of the insemination for each group of sows was given as directed in the protocol. Those sows scheduled to be inseminated 18 hours following administration of triptorelin were generally inseminated between 6:00 a.m. and 8:00 a.m. the following day, those sows scheduled to be inseminated 24 hours following administration of triptorelin were generally inseminated between noon and 2:00 p.m. the following day and those sows scheduled to be inseminated 30 hours following administration of triptorelin were generally inseminated between 6:00 p.m. and 8:00 p.m. the following day. The single insemination for each sow was performed as they were normally done at the farm. […] There was a tendency (p=0.09) for triptorelin treated sows inseminated at 18 hours (12.4 fetuses) and at 24 hours (11.8 fetuses) post treatment to have a higher number of healthy fetuses than triptorelin treated sows inseminated at 30 hours (8.6) post treatment and for vehicle treated sows inseminated at 24 hours (8.6) following treatment. […] For all analyses, the models contained the fixed effects of treatment (placebo controls inseminated 24 hours after treatment, triptorelin treated sows inseminated 18 hours after treatment, triptorelin treated sows inseminated 24 hours after treatment and triptorelin treated sows inseminated 30 hours after treatment) and replicate. The records for sow parity and lactation length were included as covariates. First order interaction of treatment and replicate was tested and removed when non-significant. Differences between treatments were tested on least squares means estimates using the T test at P<0.05."}, "sows [2]": {"test_system": "sows", "assay": "Ovulation detection by transrectal ultrasonography (Examples 1-7)", "format": "in vivo, swine", "conditions": "for OV48 (%): 48 h after treatment, OG, LS means", "method": "Approximately 120 parity one to seven sows (30 sows within each treatment group) were used to obtain ovulation and reproductive tract data. All sows were of the same genotype (PIC C22). Following 16 to 24 days of lactation, sows were blocked by length of lactation and parity and randomly assigned to one of four treatments: 1) a placebo group, receiving a placebo gel at 96±2 hours post-weaning and a single AI 24 hours later, 2) triptorelin gel at 96±2 hours post-weaning and AI 18 to 20 hours later. 3) triptorelin gel at 96±2 hours post-weaning and AI 24 to 26 hours later, and 4) triptorelin gel at 96±2 hours post-weaning and AI 30 to 32 hours later. The placebo formulation was identical to the active formulation but without the hormone being present. All treatments were deposited into the anterior vagina within 2 cm of the cervix. Follicular development and ovulation was monitored via real time ultrasound at 24, 32, 40, 48, and 56 hours after treatment. Thirty (30) days after insemination, all sows were slaughtered and reproductive tracts obtained. Pregnancy rates and embryo survival were determined. Triptorelin was administered at 96 hours (±2 hr) post-weaning as a single 2 mL dose deposited approximately 1-2 cm posterior to the cervix with a modified artificial insemination catheter. Weaning of sows occurred between 10 a.m. and noon on Day (O). The timing of the insemination for each group of sows was given as directed in the protocol. Those sows scheduled to be inseminated 18 hours following administration of triptorelin were generally inseminated between 6:00 a.m. and 8:00 a.m. the following day, those sows scheduled to be inseminated 24 hours following administration of triptorelin were generally inseminated between noon and 2:00 p.m. the following day and those sows scheduled to be inseminated 30 hours following administration of triptorelin were generally inseminated between 6:00 p.m. and 8:00 p.m. the following day. The single insemination for each sow was performed as they were normally done at the farm. […] Ultrasonography was performed at 24 hr (±1.5 hour) after treatment on Day 5 and again at 8:00 p.m. (±1.5 hour) on Day 5. On Day 6 transrectal ultrasonography was performed at 4:00 a.m. (±1 hour), noon (±1 hr) and 8:00 p.m. (±1 hr) until ovulation was complete or until the 8:00 p.m. ultrasonography on Day 6 (the 56 hour mark from the animals treated at 96 hours post-weaning) whichever came first. An Aloka 500 ultrasound machine was used for this purpose, with a 7.5 MHz linear array transducer attached to a fixed-angle PVC stabilizing rod to facilitate insertion into the rectum. The transducer and PVC rod were coated with a gynecological lubricant and gently inserted into the rectum until the ovaries could be visualized, one at a time. The diameters of the three largest follicles were to be recorded (to the nearest 0.1 mm) at each scanning. A sow was declared to have ovulated when the number of large follicles 6.5 mm) fell to less than 3. […] For all analyses, the models contained the fixed effects of treatment (placebo controls inseminated 24 hours after treatment, triptorelin treated sows inseminated 18 hours after treatment, triptorelin treated sows inseminated 24 hours after treatment and triptorelin treated sows inseminated 30 hours after treatment) and replicate. The records for sow parity and lactation length were included as covariates. First order interaction of treatment and replicate was tested and removed when non-significant. […]"}},
  "data": [
    {"smiles": "CC(C)C[C@H](NC(=O)[C@@H](Cc1c[nH]c2ccccc12)NC(=O)[C@H](Cc1ccc(O)cc1)NC(=O)[C@H](CO)NC(=O)[C@H](Cc1c[nH]c2ccccc12)NC(=O)[C@H](Cc1c[nH]cn1)NC(=O)[C@@H]1CCC(=O)N1)C(=O)N[C@@H](CCCNC(=N)N)C(=O)N1CCC[C@H]1C(=O)NCC(N)=O", "note": "[triptorelin, pGlu-His-Trp-Ser-Tyr-D-Trp-Leu-Arg-Pro-Gly-NH2]", "values": [
      {"measurement": "Number of Healthy Fetuses", "setting": "sows [1]; AI 18 h", "result": 12.4},
      {"measurement": "Number of Healthy Fetuses", "setting": "sows [1]; AI 24 h", "result": 11.8},
      {"measurement": "Number of Healthy Fetuses", "setting": "sows [1]; AI 30 h", "result": 8.6},
      {"measurement": "Pregnant (%)", "setting": "sows [1]; AI 18 h", "result": 74.4, "unit": "%"},
      {"measurement": "Pregnant (%)", "setting": "sows [1]; AI 24 h", "result": 68.1, "unit": "%"},
      {"measurement": "Pregnant (%)", "setting": "sows [1]; AI 30 h", "result": 62.3, "unit": "%"},
      {"measurement": "sows ovulating during their most synchronous 24 hr period", "setting": "sows [2]; 120 to 144 hr after weaning, triptorelin treated sows", "result": "70-77%"},
      {"measurement": "OV48 (%)", "setting": "sows [2]; AI 18 h", "result": 74.0, "unit": "%"},
      {"measurement": "OV48 (%)", "setting": "sows [2]; AI 24 h", "result": 77.0, "unit": "%"},
      {"measurement": "OV48 (%)", "setting": "sows [2]; AI 30 h", "result": 76.8, "unit": "%"},
      {"measurement": "percentage of sows ovulating by 56 hours after treatment", "setting": "sows [2]; average of triptorelin treated sows", "result": 80.4, "unit": "%"}
    ]}
  ]
}
